Assay results from US20220380347A1, “INHIBITORS OF CYSTEINE PROTEASES AND METHODS OF USE THEREOF” (Pardes Biosciences, Inc., priority 2020, published 2022).
Like-named read-outs stand apart in the source and are kept apart here.

Legend:
[1] = target: 229E Mpro (Human coronavirus 229E, UniProt P0C6X1); assay: 229E Mpro enzymatic assay (standard methods, SARS-CoV2 Mpro assay given as exemplary); type: biochemical, human coronavirus (HCov) 229E
Procedure, shortened: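 Run by standard methods, with the SARS-CoV-2 Mpro protocol given as the model: E. coli-expressed C-His6 protease at 25 nM and substrate at 25 μM (Km 13.5 μM). Buffer pH 7.3 with 5 mM TCEP and 0.1% BSA; % inhibition versus controls fitted to variable-slope log(inhibitor)-response for IC50.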

[2] = target: COVID-19 (nCoV-2019, SARS-CoV2) Mpro (Severe acute respiratory syndrome coronavirus 2, UniProt P0DTD1); assay: COVID-19 (nCoV-2019, SARS-CoV2) Mpro enzymatic assay; type: biochemical; conditions: 25 nM Mpro, 25 μM substrate; read-out: COVID-19 Mpro IC50
[3] = system: HCov OC43; assay: HCoV OC43 cytopathic effect (CPE) assay, CellTiter Glo; type: cell-based, human coronavirus (HCov) OC43
[4] = read-out: OC43 IC50 (uM) MEDIAN, median
[5] = Betacoronavirus 1, OC43, read-out: OC43 IC50 (uM) MEDIAN, median

Sequence of 229E Mpro (P0C6X1 2966-3267): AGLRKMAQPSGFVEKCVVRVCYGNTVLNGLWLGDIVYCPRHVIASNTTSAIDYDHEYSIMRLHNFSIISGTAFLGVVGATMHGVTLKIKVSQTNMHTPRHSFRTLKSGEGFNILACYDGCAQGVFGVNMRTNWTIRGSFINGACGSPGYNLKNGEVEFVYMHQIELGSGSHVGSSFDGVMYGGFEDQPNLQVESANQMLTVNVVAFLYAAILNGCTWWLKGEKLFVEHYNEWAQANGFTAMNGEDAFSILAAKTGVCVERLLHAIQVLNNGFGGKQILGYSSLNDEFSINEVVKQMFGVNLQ

Row | Structure (SMILES) | EC50 ([1]; 229E Mpro EC50) | IC50 [2] | IC50 ([3]; read-out: OC43 IC50 (uM) MEDIAN, median, listed as 961 Isomer 1) | EC50 ([1]; read-out: 229E Mpro EC50) | IC50 [3, 4] | IC50 [3, 5] | IC50 ([3]; read-out: OC43 IC50 (uM) MEDIAN, median, listed as 299 Isomer 1) | IC50 ([3]; read-out: OC43 IC50 (uM) MEDIAN, median, listed as 1160 Isomer 4)
1 | CC(C)(C)c1ccc(N(C(=O)[C@H]2CCCN2C#N)C(C(=O)N2CCNC(=O)C2)c2cccnc2)cc1 (single isomer, unassigned) [Compound 961 Isomer 1] | < 2000 nM | 2000 to 10000 nM | 2 to 10 µM | – | – | – | – | –
2 | C[C@H](NC(=O)C(c1cnccn1)N(C(=O)c1ccco1)c1ccc(-c2ccccc2)cc1)c1ccccc1 (single isomer, unassigned) [1355 Isomer 2] | – | < 2000 nM | – | 2000 to 10000 nM | > 30 µM | – | – | –
3 | CC(C)(C)c1ccc(N(C(=O)[C@H]2C[C@@H](Oc3ccccc3)CN2C#N)C(C(=O)NC2CCCCC2)c2cccnc2)cc1 (single isomer, unassigned) [307 Isomer 2] | 2000 to 10000 nM | > 30000 nM | – | – | 2 to 10 µM | – | – | –
4 | CO[C@@H]1C[C@H](C(=O)N(c2ccc(C(C)(C)C)cc2)C(C)(C(=O)NC2CCC(F)(F)CC2)c2cnccn2)N(C#N)C1 (single isomer, unassigned) [1198 Isomer 1] | 2000 to 10000 nM | 10000 to 30000 nM | – | – | – | 2 to 10 µM | – | –
5 | N#C[C@H]1C[C@H](C(=O)N(c2ccc(S(F)(F)(F)(F)F)cc2)C(C(=O)NC2CCC(F)(F)CC2)c2cncc(F)c2)N(C#N)C1 (single isomer, unassigned) [1100 Isomer 2] | – | < 2000 nM | – | < 2000 nM | < 2 µM | – | – | –
6 | CO[C@@H]1C[C@H](C(=O)N(c2ccc(S(F)(F)(F)(F)F)cc2)C(C(=O)NC(C)C2CCCCN2)c2cccnc2)N(C#N)C1 (stereo partly drawn) [Compound 1123, (2R,4R)-1-cyano-4-methoxy-N-[2-oxo-2-[1-(2-piperidyl)ethylamino]-1-(3-pyridyl)ethyl]-N-[4-(pentafluoro-λ^6-sulfanyl)phenyl]pyrrolidine-2-carboxamide] | < 2000 nM | < 2000 nM | – | – | – | < 2 µM | – | –
7 | C[C@H](NC(=O)C(c1cccnc1)N(C(=O)c1ccco1)c1ccc(-c2ccccc2)cc1)c1ccccc1 (single isomer, unassigned) [1353 Isomer 2] | > 30000 nM | > 30000 nM | – | – | > 30 µM | – | – | –
8 | N#CN1C[C@H](O)C[C@@H]1C(=O)N(c1ccc(C2(C(F)(F)F)CC2)cc1)C(C(=O)NC1CCCCC1)c1cccnc1 (single isomer, unassigned) [735 Isomer 2] | – | 2000 to 10000 nM | – | < 2000 nM | 2 to 10 µM | – | – | –
9 | COCCCNC(=O)C(c1cccnc1)N(C(=O)[C@H]1C[C@@H](O)CN1C#N)c1ccc(C(C)(C)C)cc1 (single isomer, unassigned) [647 Isomer 1] | < 2000 nM | < 2000 nM | – | – | – | < 2 µM | – | –
10 | CC1(C)CCNc2cc(N(C(=O)[C@H]3C[C@@](C)(O)CN3C#N)C(C(=O)NC3CCC(F)(F)CC3)c3cncc(F)c3)ccc21 (single isomer, unassigned) [Compound 1127 Isomer 2] | – | < 2000 nM | – | < 2000 nM | – | < 2 µM | – | –
11 | COC1CN(C#N)C(C)(C(=O)N(c2ccc(S(F)(F)(F)(F)F)cc2)C(C(=O)NC2CCC(F)(F)CC2)c2cncc(F)c2)C1 (stereo not drawn) [Compound 1135b, 1-cyano-N-[2-[(4,4-difluorocyclohexyl)amino]-1-(5-fluoro-3-pyridyl)-2-oxo-ethyl]-4-methoxy-2-methyl-N-[4-(pentafluoro-λ^6-sulfanyl)phenyl]pyrrolidine-2-carboxamide] | > 30000 nM | > 30000 nM | – | – | – | > 30 µM | – | –
12 | CO[C@@H]1C[C@H](C(=O)N(c2ccc(S(F)(F)(F)(F)F)cc2)C(C(=O)NC2CCC(F)(F)CC2)c2cnccc2C)N(C#N)C1 (single isomer, unassigned) [1199 Isomer 1] | – | < 2000 nM | – | < 2000 nM | – | < 2 µM | – | –
13 | CC(C)(C)O[C@@H]1C[C@H](C(=O)N(c2ccc(C(C)(C)C)cc2)C(C(=O)NC2CCCCC2)c2cccnc2)N(C#N)C1 (single isomer, unassigned) [Compound 299 Isomer 1] | 10000 to 30000 nM | 10000 to 30000 nM | – | – | – | – | 10 to 30 µM | –
14 | CO[C@@H]1C[C@H](C(=O)N(c2ccc(S(F)(F)(F)(F)F)cc2)C(C(=O)NCC(C)(C)OC)c2cccnc2)N(C#N)C1 (single isomer, unassigned) [1194 Isomer 2] | – | 10000 to 30000 nM | – | < 2000 nM | 2 to 10 µM | – | – | –
15 | Cc1nc[nH]c1C(C(=O)NC1CCC(F)(F)CC1)N(C(=O)[C@H]1C[C@@](C)(O)CN1C#N)c1ccc(S(F)(F)(F)(F)F)cc1 (single isomer, unassigned) [1324 Isomer 1] | 10000 to 30000 nM | > 30000 nM | – | – | > 30 µM | – | – | –
16 | CC(C)(C)c1ccc(N(C(=O)[C@H]2C[C@H](Oc3ccccc3)CN2C#N)C(C(=O)NC2CCCCC2)c2cccnc2)cc1 (single isomer, unassigned) [Compound 308 Isomer 1] | > 30000 nM | > 30000 nM | – | – | – | > 30 µM | – | –
17 | CC(C)(C)c1ccc(N(C(=O)C2CCC(F)(F)CN2C#N)C(C(=O)NC2CCCCC2)c2cccnc2)cc1 (single isomer, unassigned) [885 Isomer 2, N-(4-(tert-butyl)phenyl)-1-cyano-N-(2-(cyclohexylamino)-2-oxo-1-(pyridin-3-yl)ethyl)-5,5-difluoropiperidine-2-carboxamide] | < 2000 nM | < 2000 nM | – | – | 2 to 10 µM | – | – | –
18 | CC(C)(C)c1ccc(N(C(=O)[C@H]2CC(=O)CN2C#N)C(C(=O)NC2CCCCC2)c2cccnc2)cc1 (single isomer, unassigned) [Compound 278 Isomer 1] | < 2000 nM | 2000 to 10000 nM | – | – | – | 10 to 30 µM | – | –
19 | CO[C@@H]1C[C@H](C(=O)N(c2ccc(S(F)(F)(F)(F)F)cc2)C(C(=O)NCC2(C)CCCN(C(=O)OC(C)(C)C)C2)c2cccnc2)N(C#N)C1 (single isomer, unassigned) [1290 Isomer 2] | 2000 to 10000 nM | 10000 to 30000 nM | – | – | 2 to 10 µM | – | – | –
20 | N#CN1C[C@H]2C[C@H]2[C@@H]1C(=O)N(c1ccc(S(F)(F)(F)(F)F)cc1)C(C(=O)NC1CCC(F)(F)CC1)c1cnccc1C(F)(F)F (single isomer, unassigned) [Compound 1318 Isomer 1] | < 2000 nM | < 2000 nM | – | – | – | < 2 µM | – | –
21 | CC(C)(C)OC(=O)N1CCN(C(=O)C(c2cccnc2)N(C(=O)[C@H]2CCCN2C#N)c2ccc(C(C)(C)C)cc2)CC1 (stereo partly drawn) [Compound 954b] | 2000 to 10000 nM | 2000 to 10000 nM | – | – | – | 2 to 10 µM | – | –
22 | CO[C@@H]1C[C@H](C(=O)N(c2ccc(C(C)(C)C)cc2)C(C(=O)NC2CCCCC2)c2cccnc2)N(C#N)C1 (single isomer, unassigned) [Compound 292 Isomer 1] | < 2000 nM | 2000 to 10000 nM | – | – | – | 2 to 10 µM | – | –
23 | CO[C@@H]1C[C@H](C(=O)N(c2ccc(S(F)(F)(F)(F)F)cc2)C(C(=O)NC(C)C2CCCCN2C(=O)OC(C)(C)C)c2cccnc2)N(C#N)C1 (single isomer, unassigned) [1303 Isomer 2] | < 2000 nM | < 2000 nM | – | – | < 2 µM | – | – | –
24 | N#CN1C[C@@H](OCc2ccccc2)C[C@@H]1C(=O)N(c1ccc(S(F)(F)(F)(F)F)cc1)C(C(=O)NC1CCC(F)(F)CC1)c1cncc(F)c1 (single isomer, unassigned) [1280 Isomer 2] | 2000 to 10000 nM | > 30000 nM | – | – | 2 to 10 µM | – | – | –
25 | N#CN1CCC(F)(F)C1C(=O)N(c1ccc(S(F)(F)(F)(F)F)cc1)C(C(=O)NC1CCOCC1)c1cncc(F)c1 (stereo not drawn) [Compound 1274, 1-cyano-3,3-difluoro-N-[1-(5-fluoro-3-pyridyl)-2-oxo-2-(tetrahydropyran-4-ylamino)ethyl]-N-[4-(pentafluoro-λ^6-sulfanyl)phenyl]pyrrolidine-2-carboxamide] | < 2000 nM | < 2000 nM | – | – | – | < 2 µM | – | –
26 | CO[C@@H]1C[C@H](C(=O)N(c2ccc(S(F)(F)(F)(F)F)cc2)C(C(=O)NC2CCC(F)(F)CC2)c2cnccc2C)N(C#N)C1 (single isomer, unassigned) [Compound 1199] | < 2000 nM | < 2000 nM | – | – | < 2 µM | – | – | –
27 | N#CN1CCOC[C@@H]1C(=O)N(c1ccc(S(F)(F)(F)(F)F)cc1)C(C(=O)NC1CCC(F)(F)CC1)c1cccnc1 (stereo partly drawn) [Compound 1315, (3R)-4-cyano-N-[2-[(4,4-difluorocyclohexyl)amino]-2-oxo-1-(3-pyridyl)ethyl]-N-[4-(pentafluoro-λ6-sulfanyl)phenyl]morpholine-3-carboxamide] | < 2000 nM | < 2000 nM | – | – | – | < 2 µM | – | –
28 | N#CN1CC[C@H]2C[C@]21C(=O)N(c1ccc(S(F)(F)(F)(F)F)cc1)C(C(=O)NC1CCC(F)(F)CC1)c1cncc(F)c1 (stereo partly drawn) [Compound 1261, (1R,5S)-2-cyano-N-[2-[(4,4-difluorocyclohexyl)amino]-1-(5-fluoro-3-pyridyl)-2-oxo-ethyl]-N-[4-(pentafluoro-λ^6-sulfanyl)phenyl]-2-azabicyclo[3.1.0]hexane-1-carboxamide] | 2000 to 10000 nM | > 30000 nM | – | – | – | > 30 µM | – | –
29 | CC(C)(C)c1ccc(N(C(=O)[C@H]2C[C@@](C)(O)CN2C#N)C(C(=O)NC2CCOCC2)c2cccnc2)cc1 (single isomer, unassigned) [1142 Isomer 1] | < 2000 nM | < 2000 nM | – | – | < 2 µM | – | – | –
30 | N#CN1CC(=O)NCC1C(=O)N(c1ccc(S(F)(F)(F)(F)F)cc1)C(C(=O)NC1CCC(F)(F)CC1)c1cncc(F)c1 (single isomer, unassigned) [Compound 1160 Isomer 4, 1-cyano-N-[2-[(4,4-difluorocyclohexyl)amino]-1-(5-fluoro-3-pyridyl)-2-oxo-ethyl]-5-oxo-N-[4-(pentafluoro-λ^6-sulfanyl)phenyl]piperazine-2-carboxamide] | < 2000 nM | 2000 to 10000 nM | – | – | – | – | – | 2 to 10 µM
